# Experimental data: article PMC4205912, “Sea foam as a source of fungal inoculum for the isolation of biologically active natural products” (Mycology, 2014)
# Key:
# [1] = system: Candida albicans ATCC 14035; test: microbroth susceptibility testing, C. albicans; format: cell-based; conditions: triplicate, averaged, 22 h at 37°C
# Description: (§1) All microbroth antibiotic susceptibility testing was carried out in triplicate in 96-well plates in accordance with Clinical Laboratory Standards Institute testing standards (NCCLS, [2003]) using the following pathogens: MRSA ATCC 33591 (MRSA), S. warneri ATCC 17917, VRE EF379 (VRE), Pseudomonas aeruginosa ATCC 14210, Proteus vulgaris ATCC 12454, and Candida albicans ATCC 14035. Extract fractions were assayed at 250 µg/mL while pure compounds were serially diluted to generate a range of 12 concentrations (128–0.0625 µg/mL) in a final well volume concentration of 2% DMSO(aq). […] The optical density of the plate was recorded using a Thermo Scientific Varioskan Flash plate reader at 600 nm at time zero and then again after incubation of the plates for 22 h at 37°C. After subtracting the time zero OD600 from the final reading, the percentages of microorganism survival relative to vehicle control wells were calculated.
# [2] = system: Pseudomonas aeruginosa ATCC 14210; test: microbroth antibiotic susceptibility testing, P. aeruginosa; format: cell-based; conditions: triplicate, averaged, 22 h at 37°C
# Description: as §1
# [3] = system: erythropoietin gene expression; design: method as in Cai et al. [1998]; conditions: at a concentration of 1–1.6 µM; ref Cai et al. [1998]; cited from earlier work
# S. warneri ATCC 17917 = test: microbroth antibiotic susceptibility testing, S. warneri; format: cell-based; conditions: triplicate, averaged, 22 h at 37°C
# Description: as §1
# [4] = system: Proteus vulgaris ATCC 12454; test: microbroth antibiotic susceptibility testing, P. vulgaris; format: cell-based; conditions: triplicate, averaged, 22 h at 37°C
# Description: as §1, with “14035.” for “14035. Extract fractions were assayed at 250 µg/mL while pure compounds were serially diluted to generate a range of 12 concentrations (128–0.0625 µg/mL) in a final well volume concentration of 2% DMSO(aq).”
# VRE EF379 = test: microbroth antibiotic susceptibility testing, VRE; format: cell-based, vancomycin-resistant Enterococcus faecium; conditions: triplicate, averaged, 22 h at 37°C
# Description: as §1
# [5] = system: Human foreskin BJ fibroblast cells (ATCC CRL-2522); test: cytotoxicity assay (Alamar blue), fibroblasts; format: cell-based; conditions: Homo sapiens; BJ cells, 24 h; read-out: Fibroblast IC50
# Description: (§2) Human foreskin BJ fibroblast cells (ATCC CRL-2522), adult human epidermal keratinocytes (HEKa), and human breast adenocarcinoma cells (ATCC HTB-26) were grown to 80% confluency (growth conditions are provided in Supplementary Materials and Methods), the cells were counted, diluted, and plated into treated 96-well cell culture plates. The BJ fibroblast and HEKa cells were plated at a cell density of 10,000 cells per well and the HTB-26 cells were plated at cell density of 5000 cells per well in 90 µL of respective growth medium (without the addition of antibiotics) and incubated for 24 h to allow cells to adhere to the plates before treatment. Pure compounds were tested in triplicate in serial dilutions of eight concentrations ranging from 128 µg/mL to 1 µg/mL per well (final well volume of 100 µL, 1% DMSO per well). Each of the cell lines were incubated at 37°C in a humidified atmosphere of 5% CO2; the BJ fibroblast and HEKa cells for 24 h and the HTB-26 cells for 72 h. Each plate contained four uninoculated positive controls, four untreated negative controls, and one column containing a concentration range of zinc pyrithione or doxorubicin. Alamar blue was added, 24 h after the treatment, and fluorescence was monitored using a Thermo Scientific Varioskan Flash plate reader at 560/12 excitation, 590 nm emission both at time zero and 4 h after Alamar blue addition. The inferred percentage of cell viability relative to vehicle control wells were calculated after subtracting the time zero emission 590 nm measurement from the final reading and the IC50 was determined.
# stromelysin = system: stromelysin; design: method as in Harris et al. [1993]; conditions: ref Harris et al. [1993]; read-out: IC50, inhibition of cleavage of β-casein by stromelysin; cited from earlier work
# MRSA ATCC 33591 = test: microbroth antibiotic susceptibility testing, MRSA; format: cell-based, methicillin-resistant Staphylococcus aureus; conditions: triplicate, averaged, 22 h at 37°C
# Description: as §1
# [6] = system: adult human epidermal keratinocytes (HEKa); test: cytotoxicity assay (Alamar blue), keratinocytes; format: cell-based; conditions: HeKa cells, 24 h
# Description: as §2
# [7] = system: adult human epidermal keratinocytes (HEKa); test: cytotoxicity assay (Alamar blue), keratinocytes; format: cell-based; conditions: HeKa cells, 24 h; remark: listed apart in the source
# [8] = Pseudomonas aeruginosa, ATCC14210
compound,measurement,setting,value
"Cc1cc(=O)c(O)cc2c1C[C@H]1CC(C)(C)/C=C/C[C@@]3(C)Oc4cc(O)c(=O)cc(C)c4C[C@@H]3C[C@H](O)[C@]1(C)O2 [Pycnidione, pycnidione]",IC50,"[1]; Candida albicans, ATCC14035",5 mg/L
same,MIC,"[1]; Candida albicans, ATCC14035",8 mg/L
same,IC50,[2]; [8],> 128 mg/L
same,MIC,[2]; [8],> 128 mg/L
same,induction of erythropoietin gene expression,[3],five-fold
same,IC50,"S. warneri ATCC 17917; Staphylococcus warneri, ATCC17917, read-out: S. warneri IC50",12 mg/L
same,MIC,"S. warneri ATCC 17917; Staphylococcus warneri, ATCC17917, read-out: S. warneri MIC",64 mg/L
same,IC50,"[4]; Proteus vulgaris, ATCC12454",30 mg/L
same,MIC,"[4]; Proteus vulgaris, ATCC12454",64 mg/L
same,IC50,"VRE EF379; Enterococcus, VRE, read-out: VRE IC50",46 mg/L
same,MIC,"VRE EF379; Enterococcus, VRE, read-out: VRE MIC",64 mg/L
same,IC50,[5],11 mg/L
same,IC50,stromelysin,31 µM
same,IC50,"MRSA ATCC 33591; Staphylococcus aureus, read-out: MRSA IC50",12 mg/L
same,MIC,"MRSA ATCC 33591; Staphylococcus aureus, read-out: MRSA MIC",16 mg/L
same,IC50,"[6]; Homo sapiens, read-out: Keratinocyte IC50",15 mg/L
coniothyrione,C. albicans IC50,[1],>64 mg/L
same,C. albicans MIC,[1],>64 mg/L
same,P. aeruginosa IC50,[2],>64 mg/L
same,P. aeruginosa MIC,[2],>64 mg/L
same,S. warneri IC50,S. warneri ATCC 17917,12 mg/L
same,S. warneri MIC,S. warneri ATCC 17917,16 mg/L
same,P. vulgaris IC50,[4],30 mg/L
same,P. vulgaris MIC,[4],>64 mg/L
same,VRE IC50,VRE EF379,4 mg/L
same,VRE MIC,VRE EF379,16 mg/L
same,MRSA IC50,MRSA ATCC 33591,8 mg/L
same,MRSA MIC,MRSA ATCC 33591,16 mg/L
same,Keratinocyte IC50,[6],5 mg/L
same,Keratinocyte MIC,[7],64 mg/L
